{
  "source": "patent US8192962B2",
  "about": "“Processes for detecting toxic substances” (Daikin Industries, Ltd., priority 2001, dated 2012)",
  "tested_on": "Detoxification protein genes",
  "experiment": "DNA chip mRNA expression in yeast, detoxification protein genes (Table 8)",
  "type": "cell-based, Saccharomyces cerevisiae S288C",
  "how_it_was_run": "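Expression change after 2 h toxicant exposure (growth-inhibiting, sub-lethal) of log-phase S. cerevisiae S288C at 25° C. Oligo-dT-purified mRNA was labeled with Cy3-dUTP or Cy5-dUTP and hybridized >12 h at 65° C. to a genome-wide chip; ratio of scanned fluorescence to control.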",
  "data": [
    {"smiles": "CN(C)C(=S)SSC(=S)N(C)C", "note": "[(10), Tetramethylthiuram disulfide]", "values": [
      {"measurement": "The level of expressed mRNA in the presence of chemical substance/The level of expressed mRNA in the absence of chemical substance", "setting": "yeast gene YBL064C", "value": 3.8},
      {"measurement": "The level of expressed mRNA in the presence of chemical substance/The level of expressed mRNA in the absence of chemical substance", "setting": "yeast gene YBR008C", "value": 21.1},
      {"measurement": "The level of expressed mRNA in the presence of chemical substance/The level of expressed mRNA in the absence of chemical substance", "setting": "yeast gene YBR145W", "value": 1.1},
      {"measurement": "The level of expressed mRNA in the presence of chemical substance/The level of expressed mRNA in the absence of chemical substance", "setting": "yeast gene YBR244W", "value": 3.0},
      {"measurement": "The level of expressed mRNA in the presence of chemical substance/The level of expressed mRNA in the absence of chemical substance", "setting": "yeast gene YBR293W", "value": 2.4},
      {"measurement": "The level of expressed mRNA in the presence of chemical substance/The level of expressed mRNA in the absence of chemical substance", "setting": "yeast gene YCL035C", "value": 2.3},
      {"measurement": "The level of expressed mRNA in the presence of chemical substance/The level of expressed mRNA in the absence of chemical substance", "setting": "yeast gene YCL069W", "value": 6.9},
      {"measurement": "The level of expressed mRNA in the presence of chemical substance/The level of expressed mRNA in the absence of chemical substance", "setting": "yeast gene YCR083W", "value": 1.8},
      {"measurement": "The level of expressed mRNA in the presence of chemical substance/The level of expressed mRNA in the absence of chemical substance", "setting": "yeast gene YDL100C", "value": 3.2},
      {"measurement": "The level of expressed mRNA in the presence of chemical substance/The level of expressed mRNA in the absence of chemical substance", "setting": "yeast gene YDL168W", "value": 4.7},
      {"measurement": "The level of expressed mRNA in the presence of chemical substance/The level of expressed mRNA in the absence of chemical substance", "setting": "yeast gene YDR256C", "value": 2.0},
      {"measurement": "The level of expressed mRNA in the presence of chemical substance/The level of expressed mRNA in the absence of chemical substance", "setting": "yeast gene YDR453C", "value": 6.1},
      {"measurement": "The level of expressed mRNA in the presence of chemical substance/The level of expressed mRNA in the absence of chemical substance", "setting": "yeast gene YDR513W", "value": 3.1},
      {"measurement": "The level of expressed mRNA in the presence of chemical substance/The level of expressed mRNA in the absence of chemical substance", "setting": "yeast gene YDR538W", "value": 0.8},
      {"measurement": "The level of expressed mRNA in the presence of chemical substance/The level of expressed mRNA in the absence of chemical substance", "setting": "yeast gene YEL027W", "value": 1.1},
      {"measurement": "The level of expressed mRNA in the presence of chemical substance/The level of expressed mRNA in the absence of chemical substance", "setting": "yeast gene YEL065W", "value": 4.9},
      {"measurement": "The level of expressed mRNA in the presence of chemical substance/The level of expressed mRNA in the absence of chemical substance", "setting": "yeast gene YER185W", "value": 1.2},
      {"measurement": "The level of expressed mRNA in the presence of chemical substance/The level of expressed mRNA in the absence of chemical substance", "setting": "yeast gene YFL050C", "value": 1.6},
      {"measurement": "The level of expressed mRNA in the presence of chemical substance/The level of expressed mRNA in the absence of chemical substance", "setting": "yeast gene YGL013C", "value": 1.5},
      {"measurement": "The level of expressed mRNA in the presence of chemical substance/The level of expressed mRNA in the absence of chemical substance", "setting": "yeast gene YGL254W", "value": 1.8},
      {"measurement": "The level of expressed mRNA in the presence of chemical substance/The level of expressed mRNA in the absence of chemical substance", "setting": "yeast gene YGR088W", "value": 3.2},
      {"measurement": "The level of expressed mRNA in the presence of chemical substance/The level of expressed mRNA in the absence of chemical substance", "setting": "yeast gene YGR138C", "value": 1.0},
      {"measurement": "The level of expressed mRNA in the presence of chemical substance/The level of expressed mRNA in the absence of chemical substance", "setting": "yeast gene YGR197C", "value": 3.2},
      {"measurement": "The level of expressed mRNA in the presence of chemical substance/The level of expressed mRNA in the absence of chemical substance", "setting": "yeast gene YGR209C", "value": 6.3},
      {"measurement": "The level of expressed mRNA in the presence of chemical substance/The level of expressed mRNA in the absence of chemical substance", "setting": "yeast gene YGR224W", "value": 0.9},
      {"measurement": "The level of expressed mRNA in the presence of chemical substance/The level of expressed mRNA in the absence of chemical substance", "setting": "yeast gene YHL040C", "value": 11.3},
      {"measurement": "The level of expressed mRNA in the presence of chemical substance/The level of expressed mRNA in the absence of chemical substance", "setting": "yeast gene YHL047C", "value": 11.9},
      {"measurement": "The level of expressed mRNA in the presence of chemical substance/The level of expressed mRNA in the absence of chemical substance", "setting": "yeast gene YHR008C", "value": 2.4},
      {"measurement": "The level of expressed mRNA in the presence of chemical substance/The level of expressed mRNA in the absence of chemical substance", "setting": "yeast gene YHR048W", "value": 2.7},
      {"measurement": "The level of expressed mRNA in the presence of chemical substance/The level of expressed mRNA in the absence of chemical substance", "setting": "yeast gene YHR053C", "value": 2.9},
      {"measurement": "The level of expressed mRNA in the presence of chemical substance/The level of expressed mRNA in the absence of chemical substance", "setting": "yeast gene YHR055C", "value": 3.3},
      {"measurement": "The level of expressed mRNA in the presence of chemical substance/The level of expressed mRNA in the absence of chemical substance", "setting": "yeast gene YIR002C", "value": 1.4},
      {"measurement": "The level of expressed mRNA in the presence of chemical substance/The level of expressed mRNA in the absence of chemical substance", "setting": "yeast gene YIR038C", "value": 4.5},
      {"measurement": "The level of expressed mRNA in the presence of chemical substance/The level of expressed mRNA in the absence of chemical substance", "setting": "yeast gene YJL101C", "value": 3.6},
      {"measurement": "The level of expressed mRNA in the presence of chemical substance/The level of expressed mRNA in the absence of chemical substance", "setting": "yeast gene YJR104C", "value": 2.8},
      {"measurement": "The level of expressed mRNA in the presence of chemical substance/The level of expressed mRNA in the absence of chemical substance", "setting": "yeast gene YKL026C", "value": 3.0},
      {"measurement": "The level of expressed mRNA in the presence of chemical substance/The level of expressed mRNA in the absence of chemical substance", "setting": "yeast gene YKL064W", "value": 1.6},
      {"measurement": "The level of expressed mRNA in the presence of chemical substance/The level of expressed mRNA in the absence of chemical substance", "setting": "yeast gene YKR066C", "value": 2.4},
      {"measurement": "The level of expressed mRNA in the presence of chemical substance/The level of expressed mRNA in the absence of chemical substance", "setting": "yeast gene YKR105C", "value": 5.2},
      {"measurement": "The level of expressed mRNA in the presence of chemical substance/The level of expressed mRNA in the absence of chemical substance", "setting": "yeast gene YKR106W", "value": 7.4},
      {"measurement": "The level of expressed mRNA in the presence of chemical substance/The level of expressed mRNA in the absence of chemical substance", "setting": "yeast gene YLL028W", "value": 2.3},
      {"measurement": "The level of expressed mRNA in the presence of chemical substance/The level of expressed mRNA in the absence of chemical substance", "setting": "yeast gene YLL057C", "value": 2.9},
      {"measurement": "The level of expressed mRNA in the presence of chemical substance/The level of expressed mRNA in the absence of chemical substance", "setting": "yeast gene YLL060C", "value": 23.2},
      {"measurement": "The level of expressed mRNA in the presence of chemical substance/The level of expressed mRNA in the absence of chemical substance", "setting": "yeast gene YLR043C", "value": 2.5},
      {"measurement": "The level of expressed mRNA in the presence of chemical substance/The level of expressed mRNA in the absence of chemical substance", "setting": "yeast gene YLR046C", "value": 1.4},
      {"measurement": "The level of expressed mRNA in the presence of chemical substance/The level of expressed mRNA in the absence of chemical substance", "setting": "yeast gene YML028W", "value": 1.8},
      {"measurement": "The level of expressed mRNA in the presence of chemical substance/The level of expressed mRNA in the absence of chemical substance", "setting": "yeast gene YML116W", "value": 3.1},
      {"measurement": "The level of expressed mRNA in the presence of chemical substance/The level of expressed mRNA in the absence of chemical substance", "setting": "yeast gene YMR015C", "value": 0.3},
      {"measurement": "The level of expressed mRNA in the presence of chemical substance/The level of expressed mRNA in the absence of chemical substance", "setting": "yeast gene YMR038C", "value": 2.6},
      {"measurement": "The level of expressed mRNA in the presence of chemical substance/The level of expressed mRNA in the absence of chemical substance", "setting": "yeast gene YNL239W", "value": 6.0},
      {"measurement": "The level of expressed mRNA in the presence of chemical substance/The level of expressed mRNA in the absence of chemical substance", "setting": "yeast gene YNL241C", "value": 7.4},
      {"measurement": "The level of expressed mRNA in the presence of chemical substance/The level of expressed mRNA in the absence of chemical substance", "setting": "yeast gene YNL259C", "value": 2.1},
      {"measurement": "The level of expressed mRNA in the presence of chemical substance/The level of expressed mRNA in the absence of chemical substance", "setting": "yeast gene YOL158C", "value": 6.1},
      {"measurement": "The level of expressed mRNA in the presence of chemical substance/The level of expressed mRNA in the absence of chemical substance", "setting": "yeast gene YOR031W", "value": 1.3},
      {"measurement": "The level of expressed mRNA in the presence of chemical substance/The level of expressed mRNA in the absence of chemical substance", "setting": "yeast gene YOR153W", "value": 1.2},
      {"measurement": "The level of expressed mRNA in the presence of chemical substance/The level of expressed mRNA in the absence of chemical substance", "setting": "yeast gene YOR247W", "value": 0.4},
      {"measurement": "The level of expressed mRNA in the presence of chemical substance/The level of expressed mRNA in the absence of chemical substance", "setting": "yeast gene YOR251C", "value": 0.8},
      {"measurement": "The level of expressed mRNA in the presence of chemical substance/The level of expressed mRNA in the absence of chemical substance", "setting": "yeast gene YOR273C", "value": 0.5},
      {"measurement": "The level of expressed mRNA in the presence of chemical substance/The level of expressed mRNA in the absence of chemical substance", "setting": "yeast gene YPL163C", "value": 0.4},
      {"measurement": "The level of expressed mRNA in the presence of chemical substance/The level of expressed mRNA in the absence of chemical substance", "setting": "yeast gene YPR200C", "value": 3.8}
    ]}
  ]
}
